The results in this text go back to patent US20230150970A1, “AMINOPYRIMIDINE DERIVATIVES AND THEIR USE AS ARYL HYDROCARBON RECEPTOR MODULATORS” (DONG-A ST CO., LTD., priority 2020, published 2023).

By IC50 is commonly meant the concentration needed to halve the response being measured. A high value points to lower potency.

In this test the target is T1, AhR (Homo sapiens, UniProt P35869).
T1 sequence (P35869 11-848): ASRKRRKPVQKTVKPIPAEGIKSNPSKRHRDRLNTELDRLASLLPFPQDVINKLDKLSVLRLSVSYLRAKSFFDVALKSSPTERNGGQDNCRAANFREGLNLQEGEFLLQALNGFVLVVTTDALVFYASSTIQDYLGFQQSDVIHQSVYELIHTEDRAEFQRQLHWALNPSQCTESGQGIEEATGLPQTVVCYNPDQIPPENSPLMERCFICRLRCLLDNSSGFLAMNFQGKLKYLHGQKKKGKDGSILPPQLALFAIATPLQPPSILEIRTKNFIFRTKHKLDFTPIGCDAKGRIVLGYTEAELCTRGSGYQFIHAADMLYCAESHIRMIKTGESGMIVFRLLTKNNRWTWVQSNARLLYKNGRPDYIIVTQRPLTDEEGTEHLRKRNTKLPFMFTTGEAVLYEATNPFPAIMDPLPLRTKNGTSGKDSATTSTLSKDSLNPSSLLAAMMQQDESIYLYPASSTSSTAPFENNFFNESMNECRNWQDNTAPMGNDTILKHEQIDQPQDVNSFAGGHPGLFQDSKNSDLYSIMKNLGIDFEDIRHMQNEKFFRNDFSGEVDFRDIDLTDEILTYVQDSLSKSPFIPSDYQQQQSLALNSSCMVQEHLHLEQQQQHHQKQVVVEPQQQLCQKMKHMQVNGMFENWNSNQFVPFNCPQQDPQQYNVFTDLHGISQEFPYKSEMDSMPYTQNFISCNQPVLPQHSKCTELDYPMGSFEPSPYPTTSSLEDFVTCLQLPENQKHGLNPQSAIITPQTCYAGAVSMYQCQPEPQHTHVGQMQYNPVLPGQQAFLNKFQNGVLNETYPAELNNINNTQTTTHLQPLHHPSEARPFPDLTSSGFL
Put plainly: In Vitro Assay 1: XRE-luciferase reporter assay, antagonism in human cell line (HepG2). The note with it: Assay 1: AhR-Luc Human Antagonism (IC50, nM), values marked *: kynurenine 50 μM, 6 hours. Background: In a reporter assay the amount or activity of a reporter protein is the signal.

Description: In Vitro XRE-Luciferase Reporter Assay (In Vitro Assay 1, 2, 3) AhR activation leads the induction of target gene expression such as CYP1A1 and CYPIB1 by AhR binding to AhR-responsive DNA elements also known as xenobiotics responsive elements (XREs). The assay for measuring AhR activity herein is the luciferase assay using cell lines transfected with luciferase reporter plasmid containing XREs at the upstream of the reporter gene. Cells transfected with XRE-luciferase reporter (XRE-Luc), plasmid drive luciferase activity reflecting activation and inhibition of AhR in the cells. […] Kynurenine (an endogenous AhR agonist), was used to stimulate cells to test antagonistic properties of the compounds. The half-maximal inhibitory concentration (IC50), or half-maximal effective concentration (EC50), value was calculated using nonlinear regression (four parameters), with Prism8.0 software (GraphPad).
In Vitro Assay 1: Antagonism in Human Cell Line
HepG2 (human hepatoma cell line) cell line with a XRE-luciferase reporter either transiently or stably (Invivogen) were plated in complete medium and incubated at 37° C. in a CO2 incubator. After 24 hours, cells were treated with kynurenine (50* or 200 μM) alone (negative control) or with test compounds for 6 hours. Luciferase activity was measured with a commercial kit such as the Promega Luciferase kit or Invivogen Luciferase kit. Relative luciferase activity (Firefly/Nano-Luc) was used to calculate IC50 values. […] (IC50 values are grouped as A, B, C and D, whereby A: IC50<0.01 μM; B: 0.01<IC50<0.1 μM; C: 0.1<IC50<1.0 μM; D: IC50>1.0 μM)

As to `O[C@@H]1CCC[C@@H]1Nc1cc(-c2ccc(Cl)cc2)nc(-c2cccnc2)n1` [Example 66, (1R,2S)-2-((6-(4-chlorophenyl)-2-(pyridin-3-yl)pyrimidin-4-yl)amino)cyclopentan-1-ol], the IC50 was greater than 1000 nM.

In turn, `O[C@H]1CCC[C@@H]1Nc1cc(-c2ccc(Cl)cc2)nc(-c2cccnc2)n1` [Example 67, (1S,2S)-2-((6-(4-chlorophenyl)-2-(pyridin-3-yl)pyrimidin-4-yl)amino)cyclopentan-1-ol] came in with an IC50 of 100 to 1000 nM.

Turning to `O[C@@H]1CCCC[C@H]1Nc1cc(-c2ccc(Cl)cc2)nc(-c2cccnc2)n1` [Example 69, (1R,2R)-2-((6-(4-chlorophenyl)-2-(pyridin-3-yl)pyrimidin-4-yl)amino)cyclohexan-1-ol], the concentration for half-maximal inhibition (IC50) lay in the range of 100 to 1000 nM.

Compound `Clc1ccc(-c2cc(N3CCOCC3)nc(-c3cccnc3)n2)cc1` [Example 71, 4-(6-(4-chlorophenyl)-2-(pyridin-3-yl)pyrimidin-4-yl)morpholine] gave an IC50 of 10 to 100 nM.

Turning to `Clc1ccc(-c2cc(NCC3CNCCO3)nc(-c3cccnc3)n2)cc1` (stereo not shown) [Example 72, 6-(4-chlorophenyl)-N-(morpholin-2-ylmethyl)-2-(pyridin-3-yl)pyrimidin-4-amine], the 50% inhibitory concentration (IC50) is greater than 1000 nM.

`Clc1ccc(-c2cc(N3CCC(N4CCOCC4)C3)nc(-c3cccnc3)n2)cc1` (stereo not shown) [Example 73, 4-(1-(6-(4-chlorophenyl)-2-(pyridin-3-yl)pyrimidin-4-yl)pyrrolidin-3-yl)morpholine] came in with an IC50 greater than 1000 nM.

As to `Clc1ccc(-c2cc(N3CCSCC3)nc(-c3cccnc3)n2)cc1` [Example 74, 4-(6-(4-chlorophenyl)-2-(pyridin-3-yl)pyrimidin-4-yl)thiomorpholine], the concentration for half-maximal inhibition (IC50) lay within 100 to 1000 nM.

In turn, `Clc1ccc(-c2cc(NCCCN3CCOCC3)nc(-c3cccnc3)n2)cc1` [Example 75, 6-(4-chlorophenyl)-N-(3-morpholinopropyl)-2-(pyridin-3-yl)pyrimidin-4-amine] showed an IC50 greater than 1000 nM.

The compound `C[C@@H]1CNCCN1c1cc(-c2ccc(Cl)cc2)nc(-c2cccnc2)n1` [Example 76, (R)-4-(4-chlorophenyl)-6-(2-methylpiperazin-1-yl)-2-(pyridin-3-yl)pyrimidine] registered an IC50 greater than 1000 nM.

Turning to `C[C@@H]1CN(C(=O)c2ccccc2)CCN1c1cc(-c2ccc(Cl)cc2)nc(-c2cccnc2)n1` [Example 77, (R)-(4-(6-(4-chlorophenyl)-2-(pyridin-3-yl)pyrimidin-4-yl)-3-methylpiperazin-1-yl)(phenyl)methanone], the IC50 is greater than 1000 nM.

Take `COC(=O)[C@H]1CN(c2cc(-c3ccc(Cl)cc3)nc(-c3cccnc3)n2)CCN1` [Example 78, methyl (R)-4-(6-(4-chlorophenyl)-2-(pyridin-3-yl)pyrimidin-4-yl)piperazine-2-carboxylate]: the IC50 is greater than 1000 nM.

For the compound `Clc1ccc(-c2cc(N3CCN(c4cccc(Cl)c4Cl)CC3)nc(-c3cccnc3)n2)cc1` [Example 80, 4-(4-chlorophenyl)-6-(4-(2,3-dichlorophenyl)piperazin-1-yl)-2-(pyridin-3-yl)pyrimidine], the IC50 is greater than 1000 nM.

`COc1ccc(OC)c(CN2CCN(c3cc(-c4ccc(Cl)cc4)nc(-c4cccnc4)n3)CC2)c1` [Example 81, 4-(4-chlorophenyl)-6-(4-(2,5-dimethoxybenzyl)piperazin-1-yl)-2-(pyridin-3-yl)pyrimidine] came in with an IC50 of less than 10 nM.

For `OCCN1CCN(c2cc(-c3ccc(Cl)cc3)nc(-c3cccnc3)n2)CC1` [Example 82, 2-(4-(6-(4-chlorophenyl)-2-(pyridin-3-yl)pyrimidin-4-yl)piperazin-1-yl)ethan-1-ol], the IC50 was less than 10 nM.

Consider `COc1ccccc1N1CCN(c2cc(-c3ccc(Cl)cc3)nc(-c3cccnc3)n2)CC1` [Example 83, 4-(4-chlorophenyl)-6-(4-(2-methoxyphenyl)piperazin-1-yl)-2-(pyridin-3-yl)pyrimidine], for which the half-inhibitory concentration (IC50) lay in the range of 10 to 100 nM.

Compound `CCOc1ccccc1N1CCN(c2cc(-c3ccc(Cl)cc3)nc(-c3cccnc3)n2)CC1` [Example 84, 4-(4-chlorophenyl)-6-(4-(2-ethoxyphenyl)piperazin-1-yl)-2-(pyridin-3-yl)pyrimidine] came in with a half-maximal inhibitory concentration (IC50) greater than 1000 nM.

Regarding `Fc1ccccc1N1CCN(c2cc(-c3ccc(Cl)cc3)nc(-c3cccnc3)n2)CC1` [Example 85, 4-(4-chlorophenyl)-6-(4-(2-fluorophenyl)piperazin-1-yl)-2-(pyridin-3-yl)pyrimidine], the concentration for half-maximal inhibition (IC50) was 100 to 1000 nM.

Take `O=C(c1ccco1)N1CCN(c2cc(-c3ccc(Cl)cc3)nc(-c3cccnc3)n2)CC1` [Example 86, (4-(6-(4-chlorophenyl)-2-(pyridin-3-yl)pyrimidin-4-yl)piperazin-1-yl)(furan-2-yl)methanone]: the half-inhibitory concentration (IC50) lay within 10 to 100 nM.

As for `Clc1ccc(-c2cc(N3CCN(CCc4ccccc4)CC3)nc(-c3cccnc3)n2)cc1` [Example 87, 4-(4-chlorophenyl)-6-(4-phenethylpiperazin-1-yl)-2-(pyridin-3-yl)pyrimidine], the IC50 is 10 to 100 nM.

With `Clc1ccc(-c2cc(NCCN3CCNCC3)nc(-c3cccnc3)n2)cc1` [Example 88, 6-(4-chlorophenyl)-N-(2-(piperazin-1-yl)ethyl)-2-(pyridin-3-yl)pyrimidin-4-amine], the IC50 was greater than 1000 nM.

As to `Clc1ccc(-c2cc(N3CCN(c4ccccn4)CC3)nc(-c3cccnc3)n2)cc1` [Example 89, 4-(4-chlorophenyl)-6-(4-(pyridin-2-yl)piperazin-1-yl)-2-(pyridin-3-yl)pyrimidine], the half-inhibitory concentration (IC50) was in the range of 10 to 100 nM.

`Clc1ccc(-c2cc(N3CCN(CCN4CCOCC4)CC3)nc(-c3cccnc3)n2)cc1` [Example 91, 4-(2-(4-(6-(4-chlorophenyl)-2-(pyridin-3-yl)pyrimidin-4-yl)piperazin-1-yl)ethyl)morpholine]: the IC50 lay in the range of 10 to 100 nM.

For `Clc1ccc(-c2cc(N3CCN(C/C=C/c4ccccc4)CC3)nc(-c3cccnc3)n2)cc1` [Example 93, trans-4-(4-chlorophenyl)-6-(4-cinnamylpiperazin-1-yl)-2-(pyridin-3-yl)pyrimidine], the IC50 lay within 10 to 100 nM.

Consider `Clc1ccc(-c2cc(N3CCN(c4ccccc4)CC3)nc(-c3cccnc3)n2)cc1` [Example 95, 4-(4-chlorophenyl)-6-(4-phenylpiperazin-1-yl)-2-(pyridin-3-yl)pyrimidine], for which the IC50 lay in the range of 10 to 100 nM.

The compound `CCCN1CCN(c2cc(-c3ccc(Cl)cc3)nc(-c3cccnc3)n2)CC1` [Example 96, 4-(4-chlorophenyl)-6-(4-propylpiperazin-1-yl)-2-(pyridin-3-yl)pyrimidine] returned a half-maximal inhibitory concentration (IC50) of less than 10 nM.

Compound `Clc1ccc(-c2cc(N3CCN(Cc4ccc5c(c4)OCO5)CC3)nc(-c3cccnc3)n2)cc1` [Example 97, 4-(4-(benzo[d][1,3]dioxol-5-ylmethyl)piperazin-1-yl)-6-(4-chlorophenyl)-2-(pyridin-3-yl)pyrimidine] registered an IC50 of less than 10 nM.

With `OC[C@@H]1CN(c2cc(-c3ccc(Cl)cc3)nc(-c3cccnc3)n2)CCN1` [Example 98, (S)-(4-(6-(4-chlorophenyl)-2-(pyridin-3-yl)pyrimidin-4-yl)piperazin-2-yl)methanol], the IC50 was greater than 1000 nM.

`Fc1ccc(N2CCN(c3cc(-c4ccc(Cl)cc4)nc(-c4cccnc4)n3)CC2)cc1` [Example 99, 4-(4-chlorophenyl)-6-(4-(4-fluorophenyl)piperazin-1-yl)-2-(pyridin-3-yl)pyrimidine]: the IC50 fell in the range of 10 to 100 nM.

For the compound `CN1C(C)(C)CC(Nc2cc(-c3ccc(Cl)cc3)nc(-c3cccnc3)n2)CC1(C)C` [Example 100, 6-(4-chlorophenyl)-N-(1,2,2,6,6-pentamethylpiperidin-4-yl)-2-(pyridin-3-yl)pyrimidin-4-amine], the half-inhibitory concentration (IC50) is greater than 1000 nM.

Turning to `Clc1ccc(-c2cc(NC3CCCNC3)nc(-c3cccnc3)n2)cc1` (stereo not shown) [Example 101, 6-(4-chlorophenyl)-N-(piperidin-3-yl)-2-(pyridin-3-yl)pyrimidin-4-amine], the IC50 fell in the range of 100 to 1000 nM.

`Clc1ccc(-c2cc(N3CCNCC3)nc(-c3cccnc3)n2)cc1` [Example 102, 4-(4-chlorophenyl)-6-(piperazin-1-yl)-2-(pyridin-3-yl)pyrimidine]: the IC50 lay in the range of 100 to 1000 nM.

`C[C@@H]1CN(c2cc(-c3ccc(Cl)cc3)nc(-c3cccnc3)n2)C[C@H](C)N1` [Example 104, Cis-4-(4-chlorophenyl)-6-(3,5-dimethylpiperazin-1-yl)-2-(pyridin-3-yl)pyrimidine] gave an IC50 greater than 1000 nM.

As for `CCN1CCN(c2cc(-c3ccc(Cl)cc3)nc(-c3cccnc3)n2)CC1` [Example 106, 4-(4-chlorophenyl)-6-(4-ethylpiperazin-1-yl)-2-(pyridin-3-yl)pyrimidine], the IC50 is 10 to 100 nM.

`CC(=O)N1CCN(c2cc(-c3ccc(Cl)cc3)nc(-c3cccnc3)n2)CC1` [Example 108, 1-(4-(6-(4-chlorophenyl)-2-(pyridin-3-yl)pyrimidin-4-yl)piperazin-1-yl)ethan-1-one] had an IC50 of less than 10 nM.
